Columns and labels:
p21 gene = experiment: UVA-irradiated fibroblasts, special dosing: p21 PCR; format: cell-based; conditions: 10 mg/mL
Description: (§1) Cell inoculation: After resuscitation of cells, when a plating rate reached about 60%, the cells were inoculated in 6-well plates, and incubated overnight in the CO2 incubator (37° C., 5% CO2).
(§2) Dosing: When the plating rate of the cells in the 6-well plates reached about 50%˜60%, UVA irradiation of 30 J/cm^2 was performed on groups with UVA irradiation, and after the irradiation was finished, dosing was performed for the groups respectively, with each group in triplicate. […]
(§3) Detection of gene expression: After the incubation was finished, PBS cleaning was performed twice with 1 mL/well, each well was added with 1 mL of RNAiso Plus, to pipet and lyse the cells, after which samples were collected. RNA was extracted and subjected to reverse transcription to cDNA to undergo fluorescence quantitative PCR detection, and result was calculated by the […] method.
(§4) Statistical analysis of results: GraphPad Prism Program software was applied for plotting, and results were expressed as Mean±SD. Comparison between the groups was statistically analyzed using t-test. […]

NF-κB gene = experiment: UVA-irradiated fibroblasts, special dosing: NF-κB PCR; format: cell-based; conditions: Filtrate 0.1%, Lysate 0.5%, Filtrate + lysate 0.3125%, Pro-xylane 10 mg/mL
Description: as §1, §2, §3, §4

p16 gene = experiment: UVA-irradiated fibroblasts, special dosing: p16 PCR; format: cell-based; conditions: 10 mg/mL
Description: as §1, §2, §3, §4

MMP-1 = experiment: UVA-irradiated fibroblasts, special dosing (UVA continuous irradiation): MMP1 ELISA; format: cell-based; conditions: Filtrate 1%, Lysate 0.5%, Filtrate + lysate 0.3125%, Pro-xylane 10 mg/mL, Edelweiss 0.625%
Description: as §1
Dosing: When the plating rate of the cells in the 6-well plates reached about 50%˜60%, UVA irradiation of 30 J/cm^2 was performed on groups with UVA irradiation, and after the irradiation was finished, dosing was performed for the groups respectively, with each group in triplicate. The blank control group and the negative control group were added with 2 mL of the culture solution per well, the positive control group was added with 2 mL of the TGF-β1-containing culture solution per well, and the sample group was added with 2 mL of the test sample-containing culture solution at a corresponding concentration per well. After the dosing was completed, the 6-well plates were cultured in the CO2 incubator (37° C., 5% CO2) […] for 24 h. The above operations were repeated for 3 times. […]
as §4

IL-1β = experiment: Macrophage-based inflammatory factor test (LPS), IL-1β ELISA; format: cell-based; conditions: macrophages, dosed 2 h, then LPS 22 h, BC 2.83, NC 76.40, dexamethasone 0.01%, Filtrate 0.5%, CLR bifida ferment lysate 1%
Description: (§5) <1> Formulation of working solution of positive control group (dexamethason): 2 μL of 10% mother liquor was sucked and dissolved in 2 mL of the culture solution to formulate 0.01% dexamethasone.
(§6) <2> Formulation of 1 μg/mL LPS-containing working solution: 2 mg/mL LPS stock solution was diluted to 1 μg/mL with the test-substance working solution remaining, negative control working solution and positive control working solution, respectively, after the dosing.
(§7) <1> Cell inoculation: the cells were inoculated in 6-well plates at an inoculation density of 2.2×10^5 per well, 2 mL of a cell suspension was added to each well, the inoculated cell culture plates continued to be cultured in the incubator for 24 h (5% CO2, 37° C.).
(§8) <2> Original cell culture solution in the wells was sucked out and discarded. The sample group was added with 1.8 mL of the test substance-containing culture solution at a corresponding concentration per well; the negative control group was added with 1.8 mL of a solvent control culture solution per well; the positive control group was added with 1.8 mL of a positive control culture solution per well; and the blank control group was added with 1.8 mL of a normal culture solution per well.
(§9) <3> After the dosing was completed, the 6-well plates were cultured in a cell incubator (5% CO2, 37° C.) for 2 h. […]

PGE2 = experiment: Keratinocyte-based inflammatory factor test (UVB), PGE2 ELISA; format: cell-based; conditions: keratinocytes, dosed 24 h, UVB 300 mJ/cm^2, 24 h, BC 165.31, NC 492.42, dexamethasone 0.01%, Filtrate 0.3125%, Lysate 1%, Filtrate + lysate 0.0781%, Centella asiatica 0.625 mg/mL
Description: (§10) Cell inoculation: After resuscitation of cells, when a plating rate reached about 60%, the cells were inoculated in 6-well plates, and incubated overnight in a CO2 incubator (37° C., 5% CO2).
(§11) Dosing: According to test groups in TABLE 19, when the plating rate of the cells in the 6-well plates reached about 30%˜50%, dosing was performed for the groups respectively, with each group in triplicate. The blank control group and the negative control group were added with 2 mL of a culture solution per well, the positive control group was added with 2 mL of a dexamethasone-containing culture solution per well, and the sample group was added with 2 mL of a test sample-containing culture solution at corresponding concentration per well. After the dosing was completed, the 6-well plates were cultured in the CO2 incubator (37° C., 5% CO2) for 24 h.
UVB irradiation: after the cells are cleaned in PBS, according to the test groups, remaining groups other than the blank control group were all subjected to UVB irradiation, with an irradiation dosage of 300 mJ/cm^2. […]
(§12) Statistical analysis of results: GraphPad Prism was applied for plotting, and results were expressed as Mean±SD. Comparison between the groups was statistically analyzed using t-test. […]

IL-6 = experiment: Macrophage-based inflammatory factor test (LPS), IL-6 ELISA; format: cell-based; conditions: macrophages, dosed 2 h, then LPS 22 h, BC 0.50, NC 2224.08, dexamethasone 0.01%, Filtrate 0.5%, CLR bifida ferment lysate 1%
Description: as §5, §6, §7, §8, §9

Keratinocyte = experiment: Cell scratch test, keratinocyte cell mobility; format: cell-based; conditions: Filtrate 0.3125%, Lysate 0.5%, Filtrate + lysate 0.0781%, Madecassoside 0.625 mg/mL, B5 1.25 mg/mL
Excerpt: Cell migration capability is an important capability of repairing after tissue damage. After the tissue damage, the body will initiate repair of a damaged part, including enhancement of longitudinal cell proliferation capability and lateral crawling and migration of cells in surrounding parts of the damage to the damaged part. Cells cover the damaged part by crawling and migration.
as §10
as §11, with “9,” for “19,”, “70%˜80%,” for “30%˜50%,”, “was” for “and the negative control group were”, “an EGF-containing” for “a dexamethasone-containing”, “continued to be” for “were”, “h. […]” for “h.”
Statistical analysis of results: GraphPad Prism was applied for plotting, and results were expressed as Mean±sD. Comparison between the groups was statistically analyzed using t-test. […]

Claudin-1 gene = experiment: Keratinocyte gene expression PCR: Claudin-1; format: cell-based, human; conditions: keratinocytes (HaCaT), 24 h, 2^−ΔΔCT, BC=1.00; PC VE 0.05%, Filtrate 0.3125%, Lysate 0.5%, Filtrate + lysate 0.0781%, Madecassoside 0.625 mg/mL, CLR lactic acid bacteria 0.5%
Description: Cell inoculation: After resuscitation of the cells, when the plating rate reached about 60%, the cells were inoculated in the 6-well plates, and incubated overnight in the CO2 incubator (37° C., 5% CO2).
Dosing: According to test groups in TABLE 11 to TABLE 17, when the plating rate of the cells in the 6-well plates reached about 40%˜60%, dosing was performed for the groups respectively, with each group in triplicate. The blank control group was added with 2 mL of the culture solution per well, the positive control group was added with 2 mL of a VE-containing culture solution per well, and the sample group was added with 2 mL of the test sample-containing culture solution at a corresponding concentration per well. After the dosing was completed, the 6-well plates were cultured in the CO2 incubator (37° C., 5% CO2) for 24 h. […]
Detection of gene expression: RNA was extracted and subjected to reverse transcription to cDNA to undergo fluorescence quantitative PCR detection, and result was calculated by a 2^−ΔΔCT method.
as §12

[1] = test system: 3D epidermal skin model (EpiKutis®); experiment: SLS-stimulated 3D epidermal skin model (EpiKutis), tissue morphology H&E; format: cell-based; conditions: 0.1% SLS 30 min, then 24 h, filtrate 5%, lysate 5%, combination 5%, madecassoside 0.625 mg/mL, PC WY14643, FIG. 19
Excerpt: Tissue morphology: Tissue morphology is microscopic physiological structure analysis of tissues after HE staining. Through the tissue morphology of the model, changes in the skin barrier under different treatment conditions can be seen, for example, after SLS damage, the skin barrier becomes loose, thickness of a living cell layer decreases, and such damage can be ameliorated after treatment with active substances.
1) Formulation of 0.1% SLS working solution: 0.006 g of SLS was weighed and dissolved in 6 mL of a PBS solution, filtered by 0.22 μm, and formulated into the 0.1% SLS working solution for later use.
2) Formulation of working solution of positive control group (50 μM WY14643): 10 μL of 30 mM WY14643 mother liquor was sucked and dissolved in 6 mL of the culture solution to be formulated into 50 μM WY14643. […]
The models for detection of tissue morphology were fixed using 4% paraformaldehyde. After 24 h of fixation, H&E staining detection was performed, photographs were taken under a microscope and observed, and pictures were collected and analyzed.
as §12

Compound: CC(O)C[C@@H]1OC[C@@H](O)[C@H](O)[C@H]1O (some centres unmarked) [Pro-xylane]
- p21 gene expression, Mean (p21 gene): 1.88
- NF-κB gene expression, Inhibition Rate (vs NC) (NF-κB gene): 65.13%
- NF-κB gene expression, Mean (NF-κB gene; fibroblasts, UVA 30 J/cm^2 then dosing 24 h, repeated 3 times, BC 1.00, NC 1.52, PC TGFβ1 100 ng/mL): 0.53
- p16 Down-regulation Rate (vs NC) (p16 gene): 35.37%
- p16 gene expression, Mean (p16 gene): 1.06
- MMP1 Down-regulation Rate (vs NC) (MMP-1): 17.94%
- MMP1 Mean Concentration (MMP-1; fibroblasts, UVA 30 J/cm^2 then dosing 24 h, repeated 3 times, ELISA, BC 359379.29, NC 1075513.35, PC TGFβ1 100 ng/mL): 882584.62 pg/mL

Compound: C[C@@H]1C[C@H]2[C@@H]3CCC4=CC(=O)C=C[C@]4(C)[C@@]3(F)[C@@H](O)C[C@]2(C)[C@@]1(O)C(=O)CO [dexamethasone]
- IL-1β Mean Concentration (IL-1β): 8.51 pg/mL
- PGE2 Mean Concentration (PGE2): 159.23 pg/mL
- IL-6 Mean Concentration (IL-6): 193.04 pg/mL

Compound: Madecassoside
- Relative Mobility Mean (Keratinocyte; keratinocytes, dosed 24 h, 24 h after scratching, BC=1.00, PC EGF 1 ng/mL): 1.02
- Relative mobility, Increase Rate (Keratinocyte; vs BC): 2.00%
- Claudin-1 gene expression, Mean (Claudin-1 gene): 0.96
- Tissue morphology (H&E) compared with the NC group [1]: the phenomenon of living cell damage is obviously ameliorated
